# Data taken from PubChem BioAssay AID489027 (Sanford-Burnham Center for Chemical Genomics, 2010).
# pEC50: −log10 of the molar value. Activity calls are given as the source filed them. The rule behind the calls is not given here.
# Target: UPR counterscreen luciferase reporter, luminescence
# Assay: activators in UPR counterscreen luciferase reporter, dose response, counter-screen for adaptive UPR activator project, cell-based, luminescence (AID 489027)
SMILES,pEC50,EC50
CCOc1cccc(C(=O)Nc2cccc(-c3nnc(-c4ccc(C)cc4)o3)c2)c1,4.92,–
CC1CN(S(=O)(=O)c2ccc(C(=O)Nc3nc(-c4cc5ccccc5o4)cs3)cc2)CC(C)O1 (stereo not drawn),4.88,–
CCCc1nc2c(c(=O)c3ccccc3n2C)c(=O)n1C1CCCCCC1,–,> 80 µM (inactive)
Cc1cc(NC(=O)c2cc(-c3ccncc3)nc3ccccc23)ccc1Br,–,> 80 µM (inactive)
CCCCCCCCCCOC(=O)Cn1c(COc2ccccc2C)[n+](C)c2ccccc21,–,> 80 µM (inactive)
Clc1ccc2c(c1)C(N1CCNCC1)Cc1ccccc1S2 (stereo not drawn),–,> 80 µM (inactive)
NCCc1c(-c2ccccc2)n(-c2ccccc2)c2ccccc12,4.75,–
COc1ccc(C(=O)/C=C/c2ccc(O)cc2)c(O)c1C/C=C(\C)CCC=C(C)C,4.82,–
C=CCN1C(=O)/C(=C2/Sc3ccc(OC)cc3N2C)SC1=Nc1cccc(O)c1,–,> 80 µM (inactive)
CCN(CC)S(=O)(=O)c1ccc2c(c1)C(=NO)c1cc(S(=O)(=O)N(CC)CC)ccc1-2,–,> 80 µM (inactive)
CCOc1cc(/C=C(\C#N)c2[nH]nc(N)c2C#N)ccc1O,–,> 80 µM (inactive)
Cc1ccc(-c2nnc(-c3ccc(NC(=O)c4cccs4)cc3)o2)cc1,4.92,–
Cc1ccc(C(C)C)c(OCc2ccc(C(=O)N/N=C/c3ccc(O)c(O)c3)cc2)c1,5.31,–
O=C(Nc1nc(-c2ccc3ccccc3c2)cs1)c1ccc(N2C(=O)CCC2=O)cc1,–,> 80 µM (inactive)
COc1ccc(N=Cc2c(O)c3ccccc3oc2=O)cc1,4.99,–
COc1cc(C(=O)Nc2cc(-c3nc4cc(C)ccc4o3)ccc2C)cc(OC)c1OC,–,inactive
O=C(NCc1ccccc1Cl)c1cccc2c1C(=O)c1ccc(-c3ccc(OC(F)(F)F)cc3)cc1S2(=O)=O,5.04,–
CCOC(=O)c1c(NC(=O)c2cc3n(n2)C(C(F)(F)F)CC(c2cccs2)N3)sc(C)c1C (stereo not drawn),5.06,–
O=[N+]([O-])c1cc(-c2ccc(/C=N/c3nc4ccccn4c3-c3ccco3)o2)ccc1Cl,–,> 80 µM (inactive)

SMILES,pEC50,EC50
CC1C/C(=N/Nc2nc3ccccc3[nH]2)CC(C)(C)C1 (stereo not drawn),4.84,–
Cc1c(CCOC(=O)C23CC4(C)CC(C)(CC(C)(C4)C2)C3)sc[n+]1CC(=O)c1ccccc1,–,> 80 µM (inactive)
CC(=O)c1cccc(N=Cc2c(O)c3ccccc3oc2=O)c1,5.11,–
Cc1c(C(=O)Nc2nccs2)oc2ccc(Br)cc12,–,> 80 µM (inactive)
Cc1cccc(NC(=O)/C(C#N)=C/c2cn(CC(=O)NCc3ccco3)c3ccccc23)c1C,–,> 80 µM (inactive)
N#Cc1c(-c2ccc3c(c2)OCO3)ccn2nc(-c3cccc(C(F)(F)F)c3)nc12,–,inactive
CCOC(=O)c1[nH]c2ccc(Cl)cc2c1NC(=O)/C=C/c1ccc2c(c1)OCO2,–,inactive
N/C(=N\c1nc(CSc2ccccn2)cc(=O)[nH]1)Nc1ccc(Cl)cc1Cl,–,> 80 µM (inactive)
CCCNC(=O)/C(C#N)=C1\N=C(NC(=O)c2cccs2)c2ccccc21,–,> 80 µM (inactive)
CC1=C(CC/C(C)=N/NC(N)=S)C(C)(C)CCC1,4.86,–
COc1ccc(-c2ccc3c(c2)S(=O)(=O)c2cccc(C(=O)NCCOc4ccccc4Cl)c2C3=O)cc1OC,–,> 80 µM (inactive)
O=C(Nc1ccc(O)c2c(=O)cc(-c3cccc(Cl)c3)oc12)c1cccc(Cl)c1,–,inactive
CCc1ccc(-c2nc(CN3CCC(C(=O)NCCN(CC)c4ccccc4)CC3)c(C)o2)cc1,–,> 80 µM (inactive)
OC(CNCC1CCCO1)Cn1c2ccc(Br)cc2c2cc(Br)ccc21 (stereo not drawn),–,> 80 µM (inactive)
CCCCN1C(=O)/C(=C2/Sc3ccc(OC)cc3N2CC)SC1=S,–,inactive
COC(=O)c1c(C)oc2ccc(N(C(=O)Oc3ccccc3)S(=O)(=O)c3ccc(Cl)c([N+](=O)[O-])c3)cc12,4.90,–
O=C(Nc1ccc2oc(-c3ccccc3Cl)nc2c1)c1cncc(Br)c1,–,> 80 µM (inactive)
O=C1NC(=O)N(Cc2ccccc2)C(=O)/C1=C\c1ccco1,–,inactive
CCOc1cc(CNC(C)(C)CO)cc(Br)c1OCc1ccc(Cl)cc1Cl,–,> 80 µM (inactive)
